{
  "source": "patent US20180168208A1",
  "about": "(priority 2014, published 2018)",
  "key": {"[1]": {"target": "T1, T1R1/T1R3 receptor (Felis catus, UniProt E3UMS2)", "experiment": "Example 6: activation of T1R1/T1R3 by transmembrane compounds, conducted as in Example 5", "format": "cell-based", "text": "HEK293 cells that stably express T1R3 and inducibly express T1R1 were exposed to transmembrane compounds alone or in combination with one or more amino acids and/or one or more nucleotides to activate the umami receptor. Activation of the T1R1/T1R3 receptor was detected by a change in intracellular calcium levels using a calcium sensitive fluorescent dye. Cells that express T1R3 but not T1R1 were used as a control. A FLIPR® Tetra or a FlexStation® 3 was used for data capture.\nIn each experiment, serial dilutions of up to 10 mM of the transmembrane compound were added to the T1R1/T1R3-expressing cells."}, "[2]": {"target": "T1, T1R1/T1R3 receptor", "experiment": "cell-based", "conditions": "for Max resp % of Ala, +IMP (0.2 mM): relative to alanine; for Thres (mM), +IMP (0.2 mM): threshold concentration in the presence of 0.2 mM IMP", "outline": "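HEK293 cells stably expressing T1R3 with inducible T1R1 were given transmembrane compounds in serial dilutions up to 10 mM, alone or with amino acids and/or nucleotides. Receptor activation was read as an intracellular calcium change with a calcium-sensitive fluorescent dye; T1R3-only cells served as control.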"}, "[3]": {"target": "T2, cat T1R1/T1R3 receptor (Felis catus, UniProt A0ABI7Z2I4)", "T2 sequence (A0ABI7Z2I4 171-420)": "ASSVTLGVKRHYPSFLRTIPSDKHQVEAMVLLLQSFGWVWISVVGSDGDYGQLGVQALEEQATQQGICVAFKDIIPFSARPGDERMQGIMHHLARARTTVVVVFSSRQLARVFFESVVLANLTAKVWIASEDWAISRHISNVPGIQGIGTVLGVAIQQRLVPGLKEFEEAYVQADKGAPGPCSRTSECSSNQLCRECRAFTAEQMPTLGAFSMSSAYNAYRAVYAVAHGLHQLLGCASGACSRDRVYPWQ", "T2 sequence (Q49KI5 25-865 E206Q/N523D/F654L partner)": "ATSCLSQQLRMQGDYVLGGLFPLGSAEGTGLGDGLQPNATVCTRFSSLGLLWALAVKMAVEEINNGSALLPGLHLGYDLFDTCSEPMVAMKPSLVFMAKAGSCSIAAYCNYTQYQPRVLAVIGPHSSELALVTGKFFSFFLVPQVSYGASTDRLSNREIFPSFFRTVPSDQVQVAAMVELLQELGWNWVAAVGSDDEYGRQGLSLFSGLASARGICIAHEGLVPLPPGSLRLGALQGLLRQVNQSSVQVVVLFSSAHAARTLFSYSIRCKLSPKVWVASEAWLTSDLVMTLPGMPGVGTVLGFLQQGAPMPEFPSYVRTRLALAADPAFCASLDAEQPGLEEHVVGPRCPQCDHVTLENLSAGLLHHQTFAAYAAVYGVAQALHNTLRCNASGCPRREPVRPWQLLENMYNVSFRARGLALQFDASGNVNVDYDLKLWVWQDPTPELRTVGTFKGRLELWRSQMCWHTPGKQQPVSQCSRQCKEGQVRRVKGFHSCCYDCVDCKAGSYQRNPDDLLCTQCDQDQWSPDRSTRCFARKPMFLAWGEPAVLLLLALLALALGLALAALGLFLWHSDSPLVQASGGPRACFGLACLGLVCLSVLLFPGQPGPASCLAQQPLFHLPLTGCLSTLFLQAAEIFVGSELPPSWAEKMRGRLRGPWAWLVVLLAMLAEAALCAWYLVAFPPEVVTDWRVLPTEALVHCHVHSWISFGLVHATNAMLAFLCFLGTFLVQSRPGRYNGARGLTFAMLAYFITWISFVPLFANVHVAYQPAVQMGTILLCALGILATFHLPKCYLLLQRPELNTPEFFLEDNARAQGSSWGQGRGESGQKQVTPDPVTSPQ", "experiment": "cell-based", "method": "[…] Activation of the T1R1/T1R3 receptor was detected by a change in intracellular calcium levels using a calcium sensitive fluorescent dye. Cells that express T1R3 but not T1R1 were used as a control. A FLIPR® Tetra or a FlexStation® 3 was used for data capture.\nIn each experiment, serial dilutions of up to 0.1 mM, 1 mM or 10 mM of the nucleotide derivative were added to the T1R1/T1R3-expressing cells."}, "[4]": {"target": "T2, cat T1R1/T1R3 receptor", "experiment": "cell-based", "outline": "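HEK293 cells stably expressing T1R3 with inducible T1R1, treated with nucleotide derivatives alone or combined with amino acids and/or nucleotides. Activation read as intracellular calcium change by calcium-sensitive fluorescent dye and/or luminescent reporter. Cells expressing T1R3 without T1R1 served as control.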", "remark": "listed apart in the source"}, "[5]": {"conditions": "T1R1/T1R3 EC50 +0.2 mM IMP, +0.2 mM IMP"}, "[6]": {"conditions": "alone in buffer, read-out: T1R1/T1R3 EC50 alone in buffer"}, "[7]": {"conditions": "EC50 (mM), +Alanine (20 mM) + IMP (0.2 mM), in the presence of 20 mM alanine and 0.2 mM IMP"}, "[8]": {"conditions": "EC50 (mM), +IMP (0.2 mM), in the presence of 0.2 mM IMP"}, "[9]": {"conditions": "T1R1/T1R3 EC50 +20 mM L-alanine + 0.2 mM IMP, +20 mM L-alanine + 0.2 mM IMP"}, "[10]": {"conditions": "compound alone in buffer, read-out: EC50 (mM), +buffer (alone)"}, "[11]": {"conditions": "test compound alone (in buffer), read-out: EC50- alone"}, "[12]": {"conditions": "with 20 mM alanine, read-out: EC50- with Ala"}},
  "note": "Counter-ions that a name gives are not always drawn. Like-named read-outs stand apart in the source and are kept apart here.",
  "data": [
    {"smiles": "Nc1ccccc1C(=O)NCCc1ccccc1", "note": "[2-amino-N-phenethylbenzamide]", "values": [
      {"measurement": "EC50", "setting": "[1]", "result": "480 ± 10", "unit": "µM"},
      {"measurement": "EC50", "setting": "[1]; [5]", "result": "140 ± 30", "unit": "µM"},
      {"measurement": "EC50", "setting": "[1]; [6]", "result": "420 ± 10", "unit": "µM"},
      {"measurement": "Max resp % of IMP, +Alanine (20 mM)", "setting": "[2]", "result": 93.4, "unit": "%"},
      {"measurement": "Thres (mM), +Alanine (20 mM)", "setting": "[2]", "result": 0.3, "unit": "mM"},
      {"measurement": "EC50", "setting": "[2]; [7]", "result": 0.09, "unit": "mM"},
      {"measurement": "EC50", "setting": "[2]; EC50 (mM), +Alanine (20 mM), in the presence of 20 mM alanine", "result": 0.48, "unit": "mM"},
      {"measurement": "EC50", "setting": "[2]; [8]", "result": 0.14, "unit": "mM"},
      {"measurement": "EC50", "setting": "[2]; [5]", "result": "0.14 ± 0.02", "unit": "mM"},
      {"measurement": "EC50", "setting": "[2]; [9]", "result": "0.09 ± 0.01", "unit": "mM"},
      {"measurement": "EC50", "setting": "[2]; T1R1/T1R3 EC50 +20 mM L-alanine, +20 mM L-alanine", "result": "0.48 ± 0.01", "unit": "mM"},
      {"measurement": "EC50", "setting": "[2]; [6]", "result": "0.42 ± 0.01", "unit": "mM"},
      {"measurement": "EC50", "setting": "[2]; [10]", "result": 0.42, "unit": "mM"},
      {"measurement": "Max resp % of Ala, +IMP (0.2 mM)", "setting": "[2]; in the presence of 0.2 mM IMP", "result": 194.5, "unit": "%"},
      {"measurement": "Thres (mM), +IMP (0.2 mM)", "setting": "[2]", "result": 0.01, "unit": "mM"}
    ]},
    {"smiles": "Nc1ncnc2c1ncn2[C@H]1C[C@H](OP(=O)(O)O)[C@@H](COP(=O)(O)O)O1", "note": "[2′-deoxyadenosine-3′, 5′-O-bisphosphate]", "values": [
      {"measurement": "EC50", "setting": "[3]; [11]", "result": 20, "unit": "µM"},
      {"measurement": "Max resp. (ΔF/F)", "setting": "[4]", "result": "0.8 ΔF/F"},
      {"measurement": "Max. resp. % of IMP", "setting": "[4]", "result": "76.4 % of IMP"},
      {"measurement": "Threshold", "setting": "[4]", "result": 0.005, "unit": "mM"}
    ]},
    {"smiles": "O=c1[nH]cnc2c1ncn2C1OC(COP(=O)(O)OP(=O)(O)O)C(O)C1O", "note": "(stereo not shown) [Inosine 5′-disphosphate (IDP) sodium salt]", "values": [
      {"measurement": "EC50", "setting": "[3]", "result": "650 ± 70", "unit": "µM"}
    ]},
    {"smiles": "O=C(NCCc1c[nH]c2ccccc12)c1cccnc1", "note": "[N-(2-(1H-indol-3-yl)ethyl)nicotinamide, N-(2-(1H-Indol-3-yl)ethyl)nicotinamide]", "values": [
      {"measurement": "EC50", "setting": "[1]; [5]", "result": "50 ± 10", "unit": "µM"},
      {"measurement": "EC50", "setting": "[1]; [6]", "result": "150 ± 30", "unit": "µM"},
      {"measurement": "Max resp % of IMP, +Alanine (20 mM)", "setting": "[2]", "result": 166.4, "unit": "%"},
      {"measurement": "Thres (mM), +Alanine (20 mM)", "setting": "[2]", "result": 0.03, "unit": "mM"},
      {"measurement": "EC50", "setting": "[2]; [7]", "result": 0.04, "unit": "mM"},
      {"measurement": "EC50", "setting": "[2]; [8]", "result": 0.05, "unit": "mM"},
      {"measurement": "EC50", "setting": "[2]; [5]", "result": "0.05 ± 0.01", "unit": "mM"},
      {"measurement": "EC50", "setting": "[2]; [9]", "result": "0.04 ± 0.1", "unit": "mM"},
      {"measurement": "EC50", "setting": "[2]; [6]", "result": "0.15 ± 0.03", "unit": "mM"},
      {"measurement": "EC50", "setting": "[2]; [10]", "result": 0.15, "unit": "mM"},
      {"measurement": "Max resp % of Ala, +IMP (0.2 mM)", "setting": "[2]; in the presence of 0.2 mM IMP", "result": 170.1, "unit": "%"},
      {"measurement": "Thres (mM), +IMP (0.2 mM)", "setting": "[2]", "result": 0.003, "unit": "mM"}
    ]},
    {"smiles": "Nc1ncnc2c1ncn2C1OC(COP(O)(O)=S)C(O)C1O", "note": "(stereo not shown) [adenosine 5′-O-thiomonophosphate, Adenosine 5′-O-thiomonophosphate]", "values": [
      {"measurement": "EC50", "setting": "[3]; [11]", "result": "> 1000", "unit": "µM"},
      {"measurement": "EC50", "setting": "[3]; [12]", "result": 60, "unit": "µM"}
    ]},
    {"smiles": "C[C@H](N)C(=O)O", "note": "[alanine]", "values": [
      {"measurement": "EC50", "setting": "[3]; EC50- alone", "result": 13600, "unit": "µM"},
      {"measurement": "EC50", "setting": "[4]", "result": "13600 ± 4300", "unit": "µM"},
      {"measurement": "EC50", "setting": "[2]; EC50 (effect with 0.2 mM IMP)", "result": "12.3 ± 1.3", "unit": "mM"},
      {"measurement": "EC50", "setting": "[2]; EC50 (mM), +IMP (0.2 mM)", "result": 12.3, "unit": "mM"},
      {"measurement": "Max resp % of Ala, +IMP (0.2 mM)", "setting": "[2]; in the presence of 0.2 mM IMP", "result": 100.0, "unit": "%"},
      {"measurement": "Thres (mM), +IMP (0.2 mM)", "setting": "[2]", "result": 3.0, "unit": "mM"}
    ]},
    {"smiles": "O=c1nc[nH]c2c1ncn2C1O[C@H](COP(=O)(O)OP(=O)(O)OP(=O)(O)O)[C@@H](O)[C@H]1O", "note": "(stereo partly shown) [inosine triphosphate (ITP) trisodium salt]", "values": [
      {"measurement": "EC50", "setting": "[3]; [12]", "result": "80 ± 10", "unit": "µM"},
      {"measurement": "Activity", "setting": "[4]", "result": "active"},
      {"measurement": "EC50", "setting": "[4]", "result": 80, "unit": "µM"},
      {"measurement": "Max resp. (ΔF/F)", "setting": "[4]", "result": "0.3 ΔF/F"},
      {"measurement": "Max. resp. % of IMP", "setting": "[4]", "result": "25.1 % of IMP"},
      {"measurement": "Threshold", "setting": "[4]", "result": 0.02, "unit": "mM"}
    ]}
  ]
}
